US12318368B2, “Physics-driven discovery of novel small therapeutic compounds for use as a BCL-2 inhibitor” (BAHCESEHIR UNIVERSITESI, priority 2020, dated 2025)

Test system: HCT-116 cell lines
Experiment: MTT cell proliferation assay
Type: cell-based
Protocol: For cell culture experiments various cancer cell lines, HCT-116 colon cancer, U87-MG glial tumor, MCF7 breast cancer cell lines were used. Cells were seeded with high glucose DMEM medium (Biosera) supplemented with 10% FBS (Gibco) and 1× penicillin/streptomycin (Multicell). Twenty-four hours prior to molecule treatment, 10,000 cells were seeded into each well of 24-well cell culture plates. Molecules were used by preparing 4 mM stock solution in DMSO (Amresco). For molecule treatment, molecule stock solutions were diluted in DMEM with 10% FBS and added onto cells in each corresponding well. Final concentration of vehicle DMSO was 2% at maximum. […] We calculated the number of cells to be seeded to make sure that none of the cells reaches more than 60% confluency during the treatment period, as higher plate confluency levels would slow down cell proliferation independently from the molecule treatment.
Values of half-maximal inhibitory concentration were (IC50) determined by MTT cell proliferation assays. […] 570 nm absorbance values were recorded and IC50 values were calculated by dose response—inhibition curves and nonlinear regression analysis on GraphPad Prism 8 software. […] Following the initial incubation day, molecules were added and after incubation with MTT at 37° C. for 4 hours, formazan was solubilized with DMSO (Sigma-Aldrich, St. Louis, USA) and absorbance was measured at 570 nm. […]

IC50 (Homo sapiens, 72 h, HCT-116 colon cancer cells, MTT, single treatment, three days results, absorbance 570 nm, read-out: IC50 (half-maximal inhibitory concentration)): 25 µM
SMILES: COCCN1C(=O)/C(=C/c2ccc(OCC(=O)Nc3ccc(C)cc3)cc2)S/C1=N\c1ccccc1 [compound of formula I]
proliferation of the HCT-116 cells versus vehicle group (FIG. 1) (HCT-116 cells, compared with vehicle (max 2% DMSO)): reduced proliferation and apoptotic cell structures
